# Assay results from patent US20150132746A1, “SAMPLING MEDIUM” (UNIVERSITY OF OSLO, priority 2012, published 2015).
# Structures can show the parent of a compound that is named as a salt. Where two headings read alike, the source gives them in different places.
# What was measured:
# [1] = Long term stability of model analytes in dried oral fluid stored 30 days on alginate or chitosan foam; format: physicochemical, human; settings: n = 3
# Excerpt: The results are shown in Tables 3 and 4 for alginate and chitosan foam, respectively. No sample loss is observed after 30 days of storage. The stability of the model analytes by storing oral fluid on alginate and chitosan foam was considered satisfactory.
# [2] = cited from earlier work
# [3] = whole blood 70 ng/ml on alginate foam
# [4] = oral fluid on alginate foam, theoretical 100 ng/ml, stored at 4 C
# [5] = oral fluid on alginate foam, theoretical 100 ng/ml, stored at 37 C
# [6] = oral fluid on alginate foam, theoretical 100 ng/ml, stored at room temperature
# [7] = oral fluid on alginate foam, theoretical 100 ng/ml, stored at −18 C
# [8] = oral fluid on alginate foam, theoretical 500 ng/ml, stored at 4 C
# [9] = oral fluid on alginate foam, theoretical 500 ng/ml, stored at 37 C
# [10] = oral fluid on alginate foam, theoretical 500 ng/ml, stored at room temperature
# [11] = oral fluid on alginate foam, theoretical 500 ng/ml, stored at −18 C
# [12] = oral fluid on chitosan foam, theoretical 100 ng/ml, stored at 4 C
# [13] = oral fluid on chitosan foam, theoretical 100 ng/ml, stored at 37 C
# [14] = oral fluid on chitosan foam, theoretical 100 ng/ml, stored at room temperature
# [15] = oral fluid on chitosan foam, theoretical 100 ng/ml, stored at −18 C
# [16] = oral fluid on chitosan foam, theoretical 500 ng/ml, stored at 4 C
# [17] = oral fluid on chitosan foam, theoretical 500 ng/ml, stored at 37 C
# [18] = oral fluid on chitosan foam, theoretical 500 ng/ml, stored at room temperature
# [19] = oral fluid on chitosan foam, theoretical 500 ng/ml, stored at −18 C
Compound,"Measured concentration at day 30 [1, 4] [ng/mL]","Measured concentration at day 30 [1, 5] [ng/mL]","Measured concentration at day 30 [1, 6] [ng/mL]","Measured concentration at day 30 [1, 7] [ng/mL]","Measured concentration at day 30 [1, 8] [ng/mL]","Measured concentration at day 30 [1, 9] [ng/mL]","Measured concentration at day 30 [1, 10] [ng/mL]","Measured concentration at day 30 [1, 11] [ng/mL]","Measured concentration at day 30 [1, 12] [ng/mL]","Measured concentration at day 30 [1, 13] [ng/mL]","Measured concentration at day 30 [1, 14] [ng/mL]","Measured concentration at day 30 [1, 15] [ng/mL]","Measured concentration at day 30 [1, 16] [ng/mL]","Measured concentration at day 30 [1, 17] [ng/mL]","Measured concentration at day 30 [1, 18] [ng/mL]","Measured concentration at day 30 [1, 19] [ng/mL]",Nominal concentration at day 50 ([3]; stored at 4° C.) [ng/mL],Nominal concentration at day 50 ([3]; stored at 37° C.) [ng/mL],Nominal concentration at day 50 ([3]; stored at room temperature) [ng/mL],Nominal concentration at day 50 ([3]; stored at −18° C.) [ng/mL],also measured
"COc1ccc(CC(C)N)cc1 (stereo not drawn) [PMA, para-methoxyamphetamine]",115,53,80,105,722,406,628,717,127,131,104,122,765,648,719,769,–,–,–,–,–
N[C@H]1C(O)O[C@H](CO)[C@@H](O)[C@@H]1O (stereo partly drawn) [glucosamine],–,–,–,–,–,–,–,–,–,–,–,–,–,–,–,–,–,–,–,–,pKa [2]: 6.3
"CNC(C)Cc1ccc(OC)cc1 (stereo not drawn) [PMMA, para-methoxymethamphetamine]",114,76,197,114,715,475,628,726,123,112,104,119,765,623,647,769,–,–,–,–,–
"CCC(=O)C(CC(C)N(C)C)(c1ccccc1)c1ccccc1 (stereo not drawn) [Methadone, Methadone hydrochloride]",113,117,103,106,636,–,582,602,115,108,113,105,564,545,582,599,63,54,61,79,–
"CO[C@@]12CC[C@@]3(C[C@@H]1[C@](C)(O)C(C)(C)C)[C@H]1Cc4ccc(O)c5c4[C@@]3(CCN1CC1CC1)[C@H]2O5.Cl [Buprenorphine, buprenorphine hydrochloride]",101,115,97,96,790,656,642,656,105,100,101,101,569,595,595,611,–,–,–,–,–
"CN[C@H]1CC[C@@H](c2ccc(Cl)c(Cl)c2)c2ccccc21 [Sertraline, sertraline hydrochloride]",–,–,–,–,–,–,–,–,–,–,–,–,–,–,–,–,69,61,77,64,–
"O=C[C@H](O)[C@H](O)[C@@H](O)[C@H](O)C(=O)O [guluronic, guluronic acid]",–,–,–,–,–,–,–,–,–,–,–,–,–,–,–,–,–,–,–,–,pKa [2]: 3.65
CN[C@@H](C)Cc1ccccc1 [Methamphetamine],107,42,72,103,645,319,466,687,126,80,98,117,744,467,601,732,–,–,–,–,–
"CN(C)CCCC1(c2ccc(F)cc2)OCc2cc(C#N)ccc21 (stereo not drawn) [Citalopram, citalopram hydrobromide]",–,–,–,–,–,–,–,–,–,–,–,–,–,–,–,–,64,59,64,72,–
